Measured values reported in US9040663B2, “Melanocortin receptor-specific peptides” (AstraZeneca AB, priority 2009, dated 2015).
Like-named read-outs stand apart in the source and are kept apart here. Positions of bridges follow the written chain, without caps; N, C: chain ends. Non-standard residues stand in square brackets, D forms with d. Residues, ends and D or L forms follow the SMILES beside them. dPhe(4-CN) = N#Cc1ccc(C[C@@H](N)C(=O)O)cc1; dPhe(3-Cl) = N[C@H](Cc1cccc(Cl)c1)C(=O)O; Orn = NCCC[C@H](N)C(=O)O

Columns and labels:
hMC4-R [1] = target: T1, hMC4-R (Homo sapiens (Human), UniProt P32245); assay: High and low density hMC4-R functional assay (cAMP, HEK293-T-REx-MC4-R cells); assay type: cell-based; conditions: for Emax: NDP-α-MSH = 100%, read-out: Intrinsic Activity (%)
T1 sequence (P32245 whole entry): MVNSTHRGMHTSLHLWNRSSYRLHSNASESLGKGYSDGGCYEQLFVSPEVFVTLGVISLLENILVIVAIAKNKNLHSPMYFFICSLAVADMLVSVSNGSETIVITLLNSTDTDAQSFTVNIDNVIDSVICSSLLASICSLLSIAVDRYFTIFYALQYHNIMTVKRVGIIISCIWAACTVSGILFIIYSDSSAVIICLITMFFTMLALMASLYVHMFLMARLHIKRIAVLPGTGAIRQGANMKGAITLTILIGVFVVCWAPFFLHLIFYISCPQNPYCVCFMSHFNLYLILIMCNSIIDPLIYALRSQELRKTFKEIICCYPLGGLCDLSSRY
Description: The cells were then dispensed into 96-well plates (BD 353916) in 198 μL (about 5×10^4) cells/well and incubated for 10 minutes at 37° C. The compound to be tested was diluted with DMSO to a final concentration of 1 mM. […] 120 μL of the 1 mM compound stock was pipetted in the second column on the plate. […] All assay samples were run in duplicate (i.e. each sample was in two low dox and two high dox plates, respectively). The plates were gently shaken and incubated for 15 minutes at 37° C.

hMC4-R [2] = target: T1, hMC4-R; assay: Competitive inhibition binding assay using [I125]-NDP-α-MSH, hMC4-R; conditions: membranes of HEK-293 cells expressing recombinant hMC4-R, read-out: MC4-R Ki
Description: 7.1 Competitive Inhibition Assay using [I^125]-NDP-α-MSH.
A competitive inhibition binding assay was performed for exemplified peptides according to the invention using membrane homogenates prepared from HEK-293 cells that express recombinant hMC4-R, hMC3-R, or hMC5-R, and from B-16 mouse melanoma cells (containing endogenous MC1-R). In some instances, HEK-293 cells that express recombinant hMC1-R were employed. Assays were performed in 96 well GF/B Millipore multiscreen filtration plates (MAFB NOB10) pre-coated with 0.5% bovine serum albumin (Fraction V). Membrane homogenates were incubated with 0.2 nM (for hMC4-R) 0.4 nM (for MC3-R and MC5-R) or 0.1 nM (for mouse B16 MC1-R or hMC1-R) [I^125]-NDP-α-MSH (Perkin Elmer) and increasing concentrations of test peptides of the present invention in buffer containing 25 mM HEPES buffer (pH 7.5) with 100 mM NaCl, 2 mM CaCl2, 2 mM MgCl2, 0.3 mM 1,10-phenanthroline, and 0.2% bovine serum albumin. After incubation for 60 minutes at 37° C., the assay mixture was filtered and the membranes washed three times with ice-cold buffer. Filters were dried and counted in a gamma counter for bound radioactivity. […] Maximal specific binding (100%) was defined as the difference in radioactivity (cpm) bound to cell membranes in the absence and presence of 1 μM NDP-α-MSH. […] Each assay was conducted in triplicate and the actual mean values are described, with results less than 0% reported as 0%. Ki values for test peptides of the present invention were determined using Graph-Pad Prism® curve-fitting software.

[3] = 0.1 ng/mL Doxycycline (low density hMC4-R system)
[4] = 10 ng/mL Doxycycline (high density hMC4-R system)

Row | Compound | EC50 (hMC4-R [1]; [3]) [nM] | Emax (hMC4-R [1]; [3]) [%] | EC50 (hMC4-R [1]; [4]) [nM] | Emax (hMC4-R [1]; [4]) [%] | Ki (hMC4-R [2]) [nM]
1 | CC(=O)N[C@H](CCCNC(=N)N)C(=O)N[C@H]1CC(=O)NCCCC[C@@H](C(N)=O)NC(=O)[C@H](Cc2c[nH]c3ccccc23)NC(=O)[C@H](CCCNC(=N)N)NC(=O)[C@@H](Cc2ccc(C#N)cc2)NC(=O)[C@H](CCC(N)=O)NC1=O [Example 81, Ac-D-Arg-cyclo(Asp-Gln-D-Phe(4-CN)-Arg-Trp-Lys)-NH2] | 4 | 23 | 0.45 | 85 | 
2 | CC(=O)N[C@@H](CCCNC(=N)N)C(=O)N[C@H]1CCC(=O)NCCC[C@@H](C(N)=O)NC(=O)[C@H](Cc2c[nH]c3ccccc23)NC(=O)[C@H](CCCNC(=N)N)NC(=O)[C@@H](Cc2ccc(N)cc2)NC(=O)[C@H](CCN)NC1=O [Example 28, Ac-Arg-cyclo(Glu-Dab-D-Phe(4-NH2)-Arg-Trp-Orn)-NH2] | 29 | 35 | 0.6 | 94 | 48
3 | CC(=O)N[C@@H](CCCNC(=N)N)C(=O)N[C@H]1CCC(=O)NCCC[C@@H](C(N)=O)NC(=O)[C@H](Cc2c[nH]c3ccccc23)NC(=O)[C@H](CCCNC(=N)N)NC(=O)[C@@H](Cc2ccc(F)c(F)c2)NC(=O)[C@H](CCN)NC1=O [Example 26, Ac-Arg-cyclo(Glu-Dab-D-Phe(3,4-diF)-Arg-Trp-Orn)-NH2] | 0.125 | 74 | 0.12 | 90 | 0.3
4 | CC(=O)N[C@@H](CCCNC(=N)N)C(=O)N[C@H]1CCC(=O)NCCC[C@@H](C(N)=O)NC(=O)[C@H](Cc2c[nH]c3ccccc23)NC(=O)[C@H](CCCNC(=N)N)NC(=O)[C@@H](Cc2ccc(C(F)(F)F)cc2)NC(=O)[C@H](CCN)NC1=O [Example 20, Ac-Arg-cyclo(Glu-Dab-D-Phe(4-CF3)-Arg-Trp-Orn)-NH2] |  | 0.5 | 0.75 | 53 | 0.06
5 | CC(=O)N[C@@H](CCCNC(=N)N)C(=O)N[C@H]1CCC(=O)NCCC[C@@H](C(N)=O)NC(=O)[C@H](Cc2c[nH]c3ccccc23)NC(=O)[C@H](CCCNC(=N)N)NC(=O)[C@@H](Cc2cccc(C)c2)NC(=O)[C@H](CCN)NC1=O [Example 19, Ac-Arg-cyclo(Glu-Dab-D-Phe(3-Me)-Arg-Trp-Orn)-NH2] | 0.42 | 35 | 0.22 | 97 | 0.4
6 | CC(=O)N[C@@H](CCCNC(=N)N)C(=O)N[C@H]1CCC(=O)NCCC[C@@H](C(N)=O)NC(=O)[C@H](Cc2c[nH]c3ccccc23)NC(=O)[C@H](CCCNC(=N)N)NC(=O)[C@@H](Cc2ccccc2C)NC(=O)[C@H](CCN)NC1=O [Example 18, Ac-Arg-cyclo(Glu-Dab-D-Phe(2-Me)-Arg-Trp-Orn)-NH2] | 0.14 | 83 | 0.085 | 97 | 0.5
7 | CC(=O)N[C@@H](CCCNC(=N)N)C(=O)N[C@H]1CCC(=O)NCCC[C@@H](C(N)=O)NC(=O)[C@H](Cc2c[nH]c3ccccc23)NC(=O)[C@H](CCCNC(=N)N)NC(=O)[C@@H](Cc2cccc(Cl)c2)NC(=O)[C@H](CCCCN)NC1=O [Example 100, Ac-Arg-cyclo(Glu-Lys-D-Phe(3-Cl)-Arg-Trp-Orn)-NH2] (Ac-REK[dPhe(3-Cl)]RW[Orn]-NH2; lactam 2-7) | 6 | 27 |  | 93 | 4
8 | CC(=O)N[C@@H](CCCNC(=N)N)C(=O)N[C@H]1CCC(=O)NCCC[C@@H](C(N)=O)NC(=O)[C@H](Cc2c[nH]c3ccccc23)NC(=O)[C@H](CCCNC(=N)N)NC(=O)[C@@H](Cc2ccc(O)cc2)NC(=O)[C@H](CCN)NC1=O [Example 8, Ac-Arg-cyclo(Glu-Dab-D-Tyr-Arg-Trp-Orn)-NH2] | 48 | 71 | 0.55 | 87 | 75
9 | CC(=O)N[C@@H](CCCNC(=N)N)C(=O)N[C@H]1CC(=O)NCCCC[C@@H](C(N)=O)NC(=O)[C@H](Cc2c[nH]c3ccccc23)NC(=O)[C@H](CCCNC(=N)N)NC(=O)[C@@H](Cc2ccc(C#N)cc2)NC(=O)[C@H](CCC(N)=O)NC1=O [Example 90, Ac-Arg-cyclo(Asp-Gln-D-Phe(4-CN)-Arg-Trp-Lys)-NH2] | 4 | 31 |  | 96 | 5
10 | CC(=O)N[C@@H](CCCNC(=N)N)C(=O)N[C@H]1CCC(=O)NCCC[C@@H](C(=O)O)NC(=O)[C@H](Cc2c[nH]c3ccccc23)NC(=O)[C@H](CCCNC(=N)N)NC(=O)[C@@H](Cc2ccc(C#N)cc2)NC(=O)[C@H](CC(N)=O)NC1=O [Example 85, Ac-Arg-cyclo(Glu-Asn-D-Phe(4-CN)-Arg-Trp-Orn)-OH] | 15 | 36 |  | 94 | 
11 | CC(=O)N[C@@H](CCCNC(=N)N)C(=O)N[C@H]1CCC(=O)NCCC[C@@H](C(=O)O)NC(=O)[C@H](Cc2c[nH]c3ccccc23)NC(=O)[C@H](CCCNC(=N)N)NC(=O)[C@@H](Cc2ccc(C#N)cc2)NC(=O)[C@H](CCC(=O)O)NC1=O [Example 109, Ac-Arg-cyclo(Glu-Glu-D-Phe(4-CN)-Arg-Trp-Orn)-OH] (Ac-REE[dPhe(4-CN)]RW[Orn]-OH; lactam 2-7) |  | 2 |  | 69 | 
12 | CC(=O)N[C@@H](CCCNC(=N)N)C(=O)N[C@H]1CCC(=O)NCCC[C@@H](C(=O)O)NC(=O)[C@H](Cc2c[nH]c3ccccc23)NC(=O)[C@H](CCCNC(=N)N)NC(=O)[C@@H](Cc2cc(F)c(F)c(F)c2)NC(=O)[C@H](CCC(N)=O)NC1=O [Example 97, Ac-Arg-cyclo(Glu-Gln-D-Phe(3,4,5-triF)-Arg-Trp-Orn)-NH2] |  | 49 | 0.1 | 100 | 
13 | CC(=O)N[C@@H](CCCNC(=N)N)C(=O)N[C@H]1CCCNC(=O)CC[C@@H](C(N)=O)NC(=O)[C@H](Cc2c[nH]c3ccccc23)NC(=O)[C@H](CCCNC(=N)N)NC(=O)[C@@H](Cc2ccc(C#N)cc2)NC(=O)[C@H](CCC(N)=O)NC1=O [Example 94, Ac-Arg-cyclo(Orn-Gln-D-Phe(4-CN)-Arg-Trp-Glu)-NH2] |  | 32 | 0.09 | 92 | 
14 | CC(=O)N[C@@H](CCCNC(=N)N)C(=O)N[C@H]1CCC(=O)NCCC[C@@H](C(N)=O)NC(=O)[C@H](Cc2c[nH]c3ccccc23)NC(=O)[C@H](CCCNC(=N)N)NC(=O)[C@@H](Cc2ccc(F)cc2)NC(=O)[C@@H]2CCCN2C1=O [Example 102, Ac-Arg-cyclo(Glu-Pro-D-Phe(4-F)-Arg-Trp-Orn)-OH] | 18 |  |  |  | 
15 | CC(=O)N[C@@H](CCCNC(=N)N)C(=O)N[C@H]1CCCNC(=O)CC[C@@H](C(N)=O)NC(=O)[C@H](Cc2c[nH]c3ccccc23)NC(=O)[C@H](CCCNC(=N)N)NC(=O)[C@@H](Cc2cc(F)c(F)c(F)c2)NC(=O)[C@H](CCC(N)=O)NC1=O [Example 98, Ac-Arg-cyclo(Orn-Gln-D-Phe(3,4,5-triF)-Arg-Trp-Glu)-NH2] | 0.45 | 47 | 0.14 | 100 | 
16 | CC(=O)N[C@@H](CCCNC(=N)N)C(=O)N[C@H]1CC(=O)NCCCC[C@@H](C(N)=O)NC(=O)[C@H](Cc2c[nH]c3ccccc23)NC(=O)[C@H](CCCNC(=N)N)NC(=O)[C@@H](Cc2ccccc2F)NC(=O)[C@@H]2CCCN2C1=O [Example 104, Ac-Arg-cyclo(Asp-Pro-D-Phe(2-F)-Arg-Trp-Lys)-NH2] |  | 16 | 10 | 100 | 
